Laboratory results published in patent publication US7964621B2, “Thioamide compounds, method of making and method of using thereof” (Merial Limited, priority 2008, dated 2011).

Experiments:
Haemonchus contortus [1] = assay: Method B: screening against Haemonchus contortus in vivo on Mongolian jirds (Meriones unguiculatus); settings: oral gavage, dose as low as 1 or 10 mg/kg, necropsy 3 days after treatment, vs placebo control group
Experimental: Method B: Screening Method to Test Activity of Compounds Against Haemonchus contortus in Vivo on Mongolian Jirds (Meriones unguiculatus). Mongolian jirds, at least five weeks old, were immunosuppressed and artificially infected with ca. 1000 ensheathed Haemonchus contortus third instar larvae. Six days after infection, the jirds were treated by oral gavage with the test compounds, dissolved in a mixture of 2 parts DMSO and 1 part polyethylene glycol (PEG400), at doses of 100 mg/kg and 10 mg/kg. Jirds treated only with the placebo (2 parts DMSO and 1 part PEG400) served as controls. On day 9 (3 days after treatment) the jirds were euthanized and necropsied for recovery of parasites from the stomach. Efficacy was calculated as the average % reduction in the number of worms in each test group compared with the average number of worms from the control group. […] Compound number 1, provided at least 95% reduction in nematode infestation at a dose as low as 1 or 10 mg/kg.

Haemonchus contortus [2] = assay: Method A: screening of compounds against Haemonchus contortus L1 larvae in microtitre plate (development to L3); settings: 96 h, 4 days assessment, 27° C., read-out: motility inhibition; for inhibition at 0.01 ppm: test concentration 0.01 ppm; for inhibition at 0.15 ppm: test concentration 0.15 ppm
Experimental: Method A: Screening Method to Test Activity of Compounds Against Haemonchus contortus. Twenty L1 Haemonchus contortus larvae were added to wells of a microtitre plate containing a nutrient medium and the test compound in DMSO. The microtitre plate was then held at 27° C. where the L1 larvae were allowed to develop. An analysis was conducted at 4 days to determine successful development to the L3 stage. Larvae exposed to DMSO and no test compound served as controls. Compounds numbers 3, 4, 6 and 8 gave at least 90% motility inhibition at a test concentration of 0.15 ppm at the 4 days assessment. Compounds numbers 1, 2, 5 and 7 gave at least 90% motility inhibition at a test concentration of 0.01 ppm at the 4 days assessment.

| SMILES | reduction in nematode infestation (Haemonchus contortus [1]) | inhibition at 0.01 ppm (Haemonchus contortus [2]) [%] | inhibition at 0.15 ppm (Haemonchus contortus [2]) [%] |
| --- | --- | --- | --- |
| CC(Cn1nc2c(Cl)cc(Cl)c(Cl)c2n1)(NC(=O)c1ccc(OC(F)(F)F)cc1)C(N)=S (stereo not drawn) [Compound 1, N-[1-Methyl-1-thiocarbamoyl-2-(4,5,7-trichloro-2H-benzotriazol-2-yl)-ethyl]-4-trifluoromethoxybenzamide] | at least 95% | ≥ 90 |  |
| CC(Cn1nc2c(Cl)cc(Cl)c(Cl)c2n1)(NC(=O)c1ccc(SC(F)(F)F)cc1)C(N)=S (stereo not drawn) [Compound 2] |  | ≥ 90 |  |
| CC(COc1ccc(C#N)cc1C(F)(F)F)(NC(=O)c1ccc(OC(F)(F)F)cc1)C(N)=S (stereo not drawn) [Compound 3, N-[2-(4-Cyano-2-trifluoromethylphenoxy)-1-methyl-1-thiocarbamoyl-ethyl]-4-trifluoromethoxybenzamide] |  |  | ≥ 90 |
| CC(COc1ccc(C(N)=S)cc1C(F)(F)F)(NC(=O)c1ccc(OC(F)(F)F)cc1)C(N)=S (stereo not drawn) [Compound 4, N-[1-Methyl-1-thiocarbamoyl-2-(4-thiocarbamoyl-2-trifluoromethylphenoxy)-ethyl]-4-trifluoromethoxybenzamide] |  |  | ≥ 90 |
| CC(COc1cc(C#N)ccc1C(F)(F)F)(NC(=O)c1ccc(SC(F)(F)F)cc1)C(N)=S (stereo not drawn) [Compound 5] |  | ≥ 90 |  |
| CC(COc1cc(C(N)=S)ccc1C(F)(F)F)(NC(=O)c1ccc(SC(F)(F)F)cc1)C(N)=S (stereo not drawn) [Compound 6] |  |  | ≥ 90 |
| CC(COc1cc(C#N)ccc1C(F)(F)F)(NC(=O)c1ccc(OC(F)(F)F)cc1)C(N)=S (stereo not drawn) [Compound 7, N-[2-(5-Cyano-2-trifluoromethylphenoxy)-1-methyl-1-thiocarbamoyl-ethyl]-4-trifluoromethoxybenzamide] |  | ≥ 90 |  |
| CC(COc1cc(C(N)=S)ccc1C(F)(F)F)(NC(=O)c1ccc(OC(F)(F)F)cc1)C(N)=S (stereo not drawn) [Compound 8] |  |  | ≥ 90 |
